Reference: patent US7737169B2, “Anionically substituted 7-nitroindoline derivatives and their uses” (Medical Research Council, priority 2005, dated 2010)

Columns and labels:
GABA receptors = settings: caged ester before photolysis; cited from earlier work
GABA channels = assay: photolytic release of GABA onto neuronal cells, current responses (FIG. 1); format: cell-based
Text: FIG. 1. Current responses to photolytic release of GABA from various concentrations of 6 onto two different neuronal cells, as specified in the FIGURE. The experimental set-up and protocol was as described in reference 4.
A previous evaluation of nitroindoline-caged amino acids in neural tissue has been published^4. […] Tests described here were to assess the photolytic efficiency of GABA release in a neurophysiological experiment with particular attention to point (3), namely the presence or absence of interference of the new caged GABA with GABA-activated channels. If interference is low the expectation is that the rise-time of the receptor activation by photoreleased GABA in the presence of high cage concentration should be similar to that generated by endogenously released GABA, rising in 1-2 ms.

For NCCCC(=O)OC(C(=O)O)c1ccccc1[N+](=O)[O-] (stereo not drawn) [Compound 5, α-carboxy-2-nitrobenzyl ester of GABA], the pharmacological effects (GABA receptors) is given as “no pharmacological effects”.

With NCCCC(=O)N1CCc2c(OC(COP(=O)(O)O)COP(=O)(O)O)ccc([N+](=O)[O-])c21 [Compound 6, 1-(4-Aminobutanoyl)-4-[1,3-bis(dihydroxyphosphoryloxy)propan-2-yloxy]-7-nitroindoline] the “rise-time of current through GABA channels” value (GABA channels; 0.5 mM GABA released, 1.5 mM caged GABA present, FIG. 1 left panel) was 1 ms and the “amplitude and rate of rise of currents through GABA channels” value (GABA channels; 20-200 μm GABA released by different photolysis intensities, 1.4 mM caged GABA present, FIG. 1 right panel) was “increasing amplitudes and rates of rise at high concentration”.
